Laboratory results: US7915262B2, “Combination preparations comprising SLV308 and a dopamine agonist” (Solvay Pharmaceuticals B.V., priority 2006, dated 2011)
Structures can show the parent of a compound that is named as a salt.

What was measured:
[1] = tested on: MPTP-lesioned common marmosets; test: motor disability rating in MPTP-treated common marmosets; format: in vivo, Callithrix jacchus
Experimental: (§1) All experimental work was carried out in accordance with the Animals (Scientific Procedures Act) 1986, project license nr PPL 70/4986. Administration of MPTP: […] Research Biochemical International, UK) was dissolved in 0.9% sterile saline solution and administered by subcutaneous (sc) injection (Pearce, et al., De Novo Administration of Ropinirole and Bromocriptine Induces Less Dyskinesia than L-DOPA in the MPTP-treated Common Marmoset, Mov Dis, Mar, 13(2), 234-41, (1998)). To induce the full lesion, MPTP (2.0 mg/kg, sc) was administered once daily for 5 consecutive days. During MPTP-treatment and for the following six to eight weeks, animals were hand fed on a marmoset jelly diet until they had recovered sufficiently to feed themselves and their body weights had stabilised. All animals were determined responsive to L-DOPA administration prior to use. Testing commenced only when animals had recovered from the acute effects of MPTP treatment. In this study this was 70 days after commencement for MPTP treatment. Drugs: […] Doses are expressed as mg/kg free base. L-DOPA methyl ester (Sigma, UK) was dissolved in 10% sucrose in given in a volume of 2 ml/kg and administered by oral gavage. Carbidopa (Merck Sharp and Dohme, UK) was suspended in 10% sucrose in given in a volume of 2 ml/kg and administered directly into the mouth of the animal. Domperidone (Sigma, UK) was suspended in 10% sucrose in given in a volume of 2 ml/kg and administered directly into the mouth of the animal. […] Doses of L-DOPA were chosen to reflect a moderate and high dose of L-DOPA (7.5 and 12.5 mg/kg, po respectively). Procedure: […] A modified latin square design was employed with one week wash-out periods between treatments. Animals were assessed for locomotor activity and disability as described below. Rating of disability: The animals were monitored through a one-way mirror by experienced observers, blinded to treatment, and rated for the degree of motor dysfunction. […] Analysis and Statistics: […]

[2] = tested on: MPTP-lesioned common marmosets; test: locomotor activity in MPTP-lesioned common marmosets; format: in vivo, Callithrix jacchus; details: for hyperactivity (3 times normal activity in naive marmosets): alone or combined
Experimental: as §1, with “Assessment” for “Rating”, “locomotor activity: […] Each cage was equipped with 8 horizontally orientated infrared photocell emitters and their corresponding detectors arranged so as” for “disability: The animals were monitored through a one-way mirror by experienced observers, blinded”, “permit maximum assessment” for “treatment, and rated for the degree”, “movement.” for “motor dysfunction.”

[3] = prodrug; WO 2007/023141; cited from earlier work
dopamine D2 receptor = biological target: T1, dopamine D2 receptor (Rattus norvegicus, UniProt P61169); details: against inhibitory effect of quinpirole on K+-stimulated [3H]dopamine release, rat striatal slices; cited from earlier work
T1 construct: from rat striatal slices; from tissue; host or cells: rat striatal slices
T1 sequence (P61169 whole entry): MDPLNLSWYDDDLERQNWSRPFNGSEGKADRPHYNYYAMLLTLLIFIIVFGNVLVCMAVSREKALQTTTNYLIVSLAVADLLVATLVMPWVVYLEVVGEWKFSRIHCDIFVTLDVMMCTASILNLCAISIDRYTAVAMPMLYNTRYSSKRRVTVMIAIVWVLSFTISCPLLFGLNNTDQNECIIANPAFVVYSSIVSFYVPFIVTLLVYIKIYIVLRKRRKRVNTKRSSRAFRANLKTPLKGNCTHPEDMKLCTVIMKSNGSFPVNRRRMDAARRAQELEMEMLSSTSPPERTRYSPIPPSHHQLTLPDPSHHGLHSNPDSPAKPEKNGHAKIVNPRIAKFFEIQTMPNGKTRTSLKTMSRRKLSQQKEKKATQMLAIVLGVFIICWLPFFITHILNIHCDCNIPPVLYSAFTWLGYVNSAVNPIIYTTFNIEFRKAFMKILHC

dopamine D2/3 receptor = details: rat striatal slices; cited from earlier work
[4] = tested on: MPTP-lesioned common marmosets; details: po; previous study; cited from earlier work
[5] = biological target: T2, human recombinant dopamine D3 receptors (Homo sapiens, UniProt P35462); details: cited from earlier work
T2 construct: expressed in transfected cells
T2 sequence (P35462 whole entry): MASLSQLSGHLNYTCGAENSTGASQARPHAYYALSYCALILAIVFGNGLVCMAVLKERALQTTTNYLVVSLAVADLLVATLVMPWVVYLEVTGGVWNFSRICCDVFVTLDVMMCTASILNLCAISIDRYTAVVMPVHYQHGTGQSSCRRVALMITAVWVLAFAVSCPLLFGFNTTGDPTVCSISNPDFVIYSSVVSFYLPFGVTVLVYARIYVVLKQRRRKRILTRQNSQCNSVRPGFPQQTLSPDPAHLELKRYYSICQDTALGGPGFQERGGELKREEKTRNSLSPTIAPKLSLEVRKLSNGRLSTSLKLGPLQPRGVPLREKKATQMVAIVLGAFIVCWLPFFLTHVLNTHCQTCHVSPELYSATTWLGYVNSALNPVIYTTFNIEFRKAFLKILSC

[6] = biological target: T3, cloned human 5-HT1A receptors (Homo sapiens, UniProt P08908); details: forskolin induced cAMP accumulation; cited from earlier work
T3 construct: expressed in transfected cells
T3 sequence (P08908 1-422): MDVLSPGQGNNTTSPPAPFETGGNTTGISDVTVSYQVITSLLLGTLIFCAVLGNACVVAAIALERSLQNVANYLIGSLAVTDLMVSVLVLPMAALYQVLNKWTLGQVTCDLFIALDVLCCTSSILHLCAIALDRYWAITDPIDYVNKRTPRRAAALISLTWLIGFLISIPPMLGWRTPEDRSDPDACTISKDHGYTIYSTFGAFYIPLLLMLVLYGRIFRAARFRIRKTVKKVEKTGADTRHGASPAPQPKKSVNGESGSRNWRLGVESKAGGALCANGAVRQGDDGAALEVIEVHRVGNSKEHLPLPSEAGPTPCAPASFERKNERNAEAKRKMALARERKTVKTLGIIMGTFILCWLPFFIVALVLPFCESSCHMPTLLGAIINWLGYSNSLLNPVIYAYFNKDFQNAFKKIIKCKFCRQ

[7] = biological target: T4, cloned human dopamine D2,L receptors (Homo sapiens, UniProt P14416); details: cited from earlier work
T4 construct: expressed in transfected cells
T4 sequence (P14416 whole entry): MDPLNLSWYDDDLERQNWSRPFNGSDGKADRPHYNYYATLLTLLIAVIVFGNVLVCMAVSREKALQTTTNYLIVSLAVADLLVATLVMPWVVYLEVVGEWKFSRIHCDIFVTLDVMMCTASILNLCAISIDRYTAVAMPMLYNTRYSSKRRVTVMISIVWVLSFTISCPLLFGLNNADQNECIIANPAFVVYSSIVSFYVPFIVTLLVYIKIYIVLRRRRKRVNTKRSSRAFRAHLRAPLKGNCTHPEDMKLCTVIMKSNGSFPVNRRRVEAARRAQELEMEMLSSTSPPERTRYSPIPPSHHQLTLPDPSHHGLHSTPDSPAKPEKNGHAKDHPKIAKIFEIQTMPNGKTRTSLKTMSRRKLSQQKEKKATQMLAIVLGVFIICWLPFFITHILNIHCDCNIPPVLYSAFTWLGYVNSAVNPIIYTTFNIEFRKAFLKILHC

[8] = L-DOPA 7.5 and 12.5 mg/kg po, SLV308 0.26 mg/kg po
[9] = SLV308 0.26 mg/kg po, L-DOPA 7.5 and 12.5 mg/kg po

In the case of `N[C@@H](Cc1ccc(O)c(O)c1)C(=O)O` [L-DOPA, 3,4-dihydroxyphenylalanine], the “duration of reversal of disability” value ([1]; L-DOPA 7.5 mg/kg po) is reported as 150 min, the “duration of reversal of disability” value ([1]; L-DOPA 12.5 mg/kg po) is reported as 180 min and the “time of peak reversal of disability after administration” value ([1]; L-DOPA 7.5 and 12.5 mg/kg po) is reported as 90 min. The “MPTP-induced akinesia and disability” value [1, 8] was “reverse”, the “onset of reversal of disability” value [1, 8] was “immediate reversal of disability” and the “disability score at peak reversal” value ([1]; L-DOPA 7.5 and 12.5 mg/kg po, maximum score 18) was 2.5. The “duration of locomotor activity” value ([2]; L-DOPA 7.5 and 12.5 mg/kg po) was 150 to 240 min, the “onset of locomotor activity increase” value ([2]; L-DOPA 7.5 and 12.5 mg/kg po) was “immediate increase in locomotor activity” and the “time of peak locomotor activity after administration” value ([2]; L-DOPA 7.5 and 12.5 mg/kg po) was 60 to 90 min. The “hyperactivity (3 times normal activity in naive marmosets)” value [2, 9] was “produced periods of hyperactivity”.
For `C[N+]1([O-])CCN(c2cccc3[nH]c(=O)oc23)CC1` [N-oxide of SLV308], the “conversion to SLV308 in vivo” value [3] is listed as “rapidly converted to SLV308”.
For `CCN(CC)C(=O)N[C@H]1C[C@@H]2c3cccc4[nH]cc(c34)C[C@H]2N(C)C1` [terguride, reference compound], the pA2 (dopamine D2 receptor) is given as 10.3.
In the case of `CN1CCN(c2cccc3[nH]c(=O)oc23)CC1` [SLV308, 7-[4-methyl-1-piperazinyl]-2(3H)-benzoxazolone mono hydrochloride], the “MPTP-induced akinesia and disability” value [1, 8] is reported as “reverse”, the “onset of reversal of disability” value [1, 8] is reported as “reduced disability scores immediately after administration” and the “median duration of activity (reversal of disability)” value ([1]; SLV308 0.26 mg/kg po alone) is reported as 390 min. The “total disability scores over the 7 hours after administration” value ([1]; SLV308 0.26 mg/kg po alone or in combination with L-DOPA 7.5 or 12.5 mg/kg, versus vehicle p<0.001) was “reduced”, the “disability score at maximum improvement” value ([1]; SLV308 0.26 mg/kg po, maximum score 18) was 3 and the “effect on forskolin stimulated accumulation of cAMP” value (dopamine D2/3 receptor) was “concentration-dependently attenuated”. For the same molecule, the pA2 (dopamine D2 receptor) was 8.5, the “dose of optimal effect on locomotor activity and disability scores” value [4] was 0.26 mg/kg and the pA2 ([5]; antagonism of dopamine induction of [35S]GTPγS binding) was 9.0. For the same molecule, the pEC50 ([5]; induction of [35S]GTPγS binding) was 9.2, the “induction of [35S]GTPγS binding” value ([5]; partial agonist) was 67 % that of dopamine and the pEC50 [6] was 6.3. The “type of agonism at 5-HT1A” value [6] was “full 5-HT1A receptor agonist”, the “time of peak locomotor activity after treatment” value ([2]; SLV308 0.26 mg/kg po) was 180 min and the “time to increase of locomotor activity after administration” value ([2]; SLV308 0.26 mg/kg po) was ≤ 30 min. The “hyperactivity (3 times normal activity in naive marmosets)” value [2, 9] was “hyperactivity was not observed”, the “duration of locomotor activity” value ([2]; SLV308 0.26 mg/kg po, whole observation period) was ≥ 420 min and the pA2 ([7]; D2,L receptor antagonism) was 8.4. For the same molecule, the “efficacy on forskolin stimulated cAMP accumulation” value ([7]; partial agonist) was 50%.
